Patent publication US7695930B2, “Method for the detection, identification and/or quantification of microoganisms with peptidase activity using phenoxazinone derivatives as enzyme substrates” (Biomerieux, priority 2003, dated 2010)

What was measured:
Assay in all cases: Alanyl-peptidase detection on agar medium (Example 13)
Format in all cases: cell-based
Details in all cases: 50 mg/l
Acinetobacter baumanii = system: Acinetobacter baumanii
Experimental: (§1) The detection media were prepared by mixing 3.6 g of biogelytone (bioMérieux), 2.16 g of meat extract (bioMérieux), 1.26 g of malt extract (bioMérieux), 5.76 g of NaCl (Merck) and 10.8 g of agar (bioMérieux).
(§2) 720 ml of osmosed water were added to the powder, and the mixture was then melted in a waterbath at […]. The product was separated into two flasks, each of 360 ml. Autoclaving was carried out at 121° C. for 15 min and the product was cooled to […]. in a waterbath.
(§3) L-Alanyl-7-amino-4-methylcoumarin (Ala-AMC, Bachem) was then added to the first flask as a control, at the final concentration of 50 mg/l, and L-alanyl-9-aminobenzo[a]phenoxazin-5-one (Ala-ABP, substrate of the invention obtained in Example 2, in which the amino acid is L-alanine), was then added to the second flask at the final concentration of 25 mg/l.
(§4) The size of the colonies, their coloration and also the intensity of this coloration were noted.

Bacillus subtilis = system: Bacillus subtilis
Experimental: as §1, §2, §3, §4

Candida albicans = system: Candida albicans
Experimental: as §1, §2, §3, §4

Candida glabrata = system: Candida glabrata
Experimental: as §1, §2, §3, §4

Candida krusei = system: Candida krusei
Experimental: as §1, §2, §3, §4

[1] = system: Corynebacterium Pseudodiphteriticum
Experimental: as §1, §2, §3, §4

Edwardsiella tarda = system: Edwardsiella tarda
Experimental: as §1, §2, §3, §4

Enterobacter cloacae = system: Enterobacter cloacae
Experimental: as §1, §2, §3, §4

Enterococcus faecalis = system: Enterococcus faecalis
Experimental: as §1, §2, §3, §4

Enterococcus faecium = system: Enterococcus faecium
Experimental: as §1, §2, §3, §4

Escherichia coli = system: Escherichia coli
Experimental: as §1, §2, §3, §4

Hafnia alvei = system: Hafnia alvei
Experimental: as §1, §2, §3, §4

Klebsiella pneumoniae = system: Klebsiella pneumoniae
Experimental: as §1, §2, §3, §4

Listeria innocua = system: Listeria innocua
Experimental: as §1, §2, §3, §4

Proteus mirabilis = system: Proteus mirabilis
Experimental: as §1, §2, §3, §4

Pseudomonas aeruginosa = system: Pseudomonas aeruginosa
Experimental: as §1, §2, §3, §4

Saccharomyces cerevisiae = system: Saccharomyces cerevisiae
Experimental: as §1, §2, §3, §4

Salmonella typhimurium = system: Salmonella typhimurium
Experimental: as §1, §2, §3, §4

Serratia liquefaciens = system: Serratia liquefaciens
Experimental: as §1, §2, §3, §4

Serratia marcescens = system: Serratia marcescens
Experimental: as §1, §2, §3, §4

Staphylococcus aureus = system: Staphylococcus aureus
Experimental: as §1, §2, §3, §4

[2] = system: Staphylococcus epidermidis
Experimental: as §1, §2, §3, §4

[3] = system: Staphylococcus saprophyticus
Experimental: as §1, §2, §3, §4

Streptococcus agalactiae = system: Streptococcus agalactiae
Experimental: as §1, §2, §3, §4

Streptococcus pyogenes = system: Streptococcus pyogenes
Experimental: as §1, §2, §3, §4

Question: With `Cc1cc(=O)oc2cc(NC(=O)[C@H](C)N)ccc12` [Ala-AMC, L-Alanyl-7-amino-4-methylcoumarin, reference compound] as the compound, how does the growth diameter (Acinetobacter baumanii; 24 h) read?
Answer: 1.5 mm

Question: What about the “intensity of coloration, scale 0 to 4” value (Acinetobacter baumanii; 24 h) of the same compound?
Answer: 3

Question: What about the growth diameter (Acinetobacter baumanii; 48 h) of the same compound?
Answer: 1.5 mm

Question: And the “intensity of coloration, scale 0 to 4” value (Acinetobacter baumanii; 48 h)?
Answer: 3

Question: And the growth diameter (Bacillus subtilis; 24 h)?
Answer: 1.7 mm

Question: What about the growth diameter (Bacillus subtilis; 48 h) of the same compound?
Answer: 1.8 mm

Question: What about the growth diameter (Candida albicans; 24 h) of the same compound?
Answer: 0.3 mm

Question: What about the growth diameter (Candida albicans; 48 h) of the same compound?
Answer: 0.5 mm

Question: And the “intensity of coloration, scale 0 to 4” value (Candida albicans; 48 h)?
Answer: 2

Question: And the growth diameter (Candida glabrata; 24 h)?
Answer: 0.2 mm

Question: What about the growth diameter (Candida glabrata; 48 h) of the same compound?
Answer: 0.3 mm

Question: And the growth diameter (Candida krusei; 24 h)?
Answer: 0.7 mm

Question: And the growth diameter (Candida krusei; 48 h)?
Answer: 1.5 mm

Question: What about the “intensity of coloration, scale 0 to 4” value (Candida krusei; 48 h) of the same compound?
Answer: 0.25

Question: And the growth diameter ([1]; 24 h)?
Answer: 0 mm

Question: And the growth diameter ([1]; 48 h)?
Answer: 0.4 mm

Question: And the “intensity of coloration, scale 0 to 4” value ([1]; 48 h)?
Answer: 2

Question: What about the growth diameter (Edwardsiella tarda; 24 h) of the same compound?
Answer: 0.4 mm

Question: And the “intensity of coloration, scale 0 to 4” value (Edwardsiella tarda; 24 h)?
Answer: 3

Question: What about the growth diameter (Edwardsiella tarda; 48 h) of the same compound?
Answer: 0.5 mm

Question: And the “intensity of coloration, scale 0 to 4” value (Edwardsiella tarda; 48 h)?
Answer: 3

Question: And the growth diameter (Enterobacter cloacae; 24 h)?
Answer: 0.5 mm

Question: What about the “intensity of coloration, scale 0 to 4” value (Enterobacter cloacae; 24 h) of the same compound?
Answer: 3

Question: What about the growth diameter (Enterobacter cloacae; 48 h) of the same compound?
Answer: 0.8 mm

Question: And the “intensity of coloration, scale 0 to 4” value (Enterobacter cloacae; 48 h)?
Answer: 3

Question: And the growth diameter (Enterococcus faecalis; 24 h)?
Answer: 0.3 mm

Question: And the growth diameter (Enterococcus faecalis; 48 h)?
Answer: 0.4 mm

Question: And the growth diameter (Enterococcus faecium; 24 h)?
Answer: 0.2 mm

Question: And the growth diameter (Enterococcus faecium; 48 h)?
Answer: 0.3 mm

Question: What about the “intensity of coloration, scale 0 to 4” value (Enterococcus faecium; 48 h) of the same compound?
Answer: 0.25

Question: And the growth diameter (Escherichia coli; 24 h)?
Answer: 1.7 mm

Question: And the “intensity of coloration, scale 0 to 4” value (Escherichia coli; 24 h)?
Answer: 3

Question: What about the growth diameter (Escherichia coli; 48 h) of the same compound?
Answer: 1.7 mm

Question: What about the “intensity of coloration, scale 0 to 4” value (Escherichia coli; 48 h) of the same compound?
Answer: 3

Question: And the growth diameter (Hafnia alvei; 24 h)?
Answer: 0.7 mm

Question: And the “intensity of coloration, scale 0 to 4” value (Hafnia alvei; 24 h)?
Answer: 3

Question: And the growth diameter (Hafnia alvei; 48 h)?
Answer: 0.7 mm

Question: What about the “intensity of coloration, scale 0 to 4” value (Hafnia alvei; 48 h) of the same compound?
Answer: 3

Question: And the growth diameter (Klebsiella pneumoniae; 24 h)?
Answer: 1.2 mm

Question: What about the “intensity of coloration, scale 0 to 4” value (Klebsiella pneumoniae; 24 h) of the same compound?
Answer: 3

Question: What about the growth diameter (Klebsiella pneumoniae; 48 h) of the same compound?
Answer: 1.8 mm

Question: And the “intensity of coloration, scale 0 to 4” value (Klebsiella pneumoniae; 48 h)?
Answer: 3

Question: What about the growth diameter (Listeria innocua; 24 h) of the same compound?
Answer: 0.2 mm

Question: What about the growth diameter (Listeria innocua; 48 h) of the same compound?
Answer: 0.3 mm

Question: What about the growth diameter (Proteus mirabilis; 24 h) of the same compound?
Answer: 0.7 mm

Question: What about the “intensity of coloration, scale 0 to 4” value (Proteus mirabilis; 24 h) of the same compound?
Answer: 3

Question: What about the growth diameter (Proteus mirabilis; 48 h) of the same compound?
Answer: 0.7 mm

Question: And the “intensity of coloration, scale 0 to 4” value (Proteus mirabilis; 48 h)?
Answer: 3

Question: What about the growth diameter (Pseudomonas aeruginosa; 24 h) of the same compound?
Answer: 0.3 mm

Question: And the growth diameter (Pseudomonas aeruginosa; 48 h)?
Answer: 0.5 mm

Question: What about the “intensity of coloration, scale 0 to 4” value (Pseudomonas aeruginosa; 48 h) of the same compound?
Answer: 2

Question: What about the growth diameter (Saccharomyces cerevisiae; 24 h) of the same compound?
Answer: 0.1 mm

Question: What about the growth diameter (Saccharomyces cerevisiae; 48 h) of the same compound?
Answer: 0.2 mm

Question: What about the growth diameter (Salmonella typhimurium; 24 h) of the same compound?
Answer: 1.3 mm

Question: And the “intensity of coloration, scale 0 to 4” value (Salmonella typhimurium; 24 h)?
Answer: 3

Question: And the growth diameter (Salmonella typhimurium; 48 h)?
Answer: 1.5 mm

Question: What about the “intensity of coloration, scale 0 to 4” value (Salmonella typhimurium; 48 h) of the same compound?
Answer: 3

Question: And the growth diameter (Serratia liquefaciens; 24 h)?
Answer: 0.7 mm

Question: What about the “intensity of coloration, scale 0 to 4” value (Serratia liquefaciens; 24 h) of the same compound?
Answer: 3

Question: And the growth diameter (Serratia liquefaciens; 48 h)?
Answer: 1.3 mm

Question: What about the “intensity of coloration, scale 0 to 4” value (Serratia liquefaciens; 48 h) of the same compound?
Answer: 3

Question: What about the growth diameter (Serratia marcescens; 24 h) of the same compound?
Answer: 0.5 mm

Question: And the “intensity of coloration, scale 0 to 4” value (Serratia marcescens; 24 h)?
Answer: 3

Question: And the growth diameter (Serratia marcescens; 48 h)?
Answer: 0.7 mm

Question: And the “intensity of coloration, scale 0 to 4” value (Serratia marcescens; 48 h)?
Answer: 3

Question: What about the growth diameter (Staphylococcus aureus; 24 h) of the same compound?
Answer: 0.5 mm

Question: And the growth diameter (Staphylococcus aureus; 48 h)?
Answer: 0.7 mm

Question: What about the growth diameter ([2]; 24 h) of the same compound?
Answer: 0.3 mm

Question: And the growth diameter ([2]; 48 h)?
Answer: 0.4 mm

Question: And the growth diameter ([3]; 24 h)?
Answer: 0.3 mm

Question: And the growth diameter ([3]; 48 h)?
Answer: 0.4 mm

Question: What about the growth diameter (Streptococcus agalactiae; 24 h) of the same compound?
Answer: 0.1 mm

Question: What about the growth diameter (Streptococcus agalactiae; 48 h) of the same compound?
Answer: 0.2 mm

Question: What about the growth diameter (Streptococcus pyogenes; 24 h) of the same compound?
Answer: 0.1 mm

Question: What about the growth diameter (Streptococcus pyogenes; 48 h) of the same compound?
Answer: 0.2 mm

Question: What about the “intensity of coloration, scale 0 to 4” value (Streptococcus pyogenes; 48 h) of the same compound?
Answer: 3
